These results are taken from US5643912A, “Pyrazinoic acid esters as anti-mycobacterium avium agents” (The Research Foundation of State University of NY, priority 1996, dated 1997).

As a reminder, the MIC is the least concentration at which growth counts as inhibited.

SMILES strings stand for the structures. In brackets after ≈: the same amount, converted by molar mass.

Common to all, as to format: cell-based
Assay [1] deals with M. kansasii SWK. Description: Broth dilution MIC vs M. kansasii SWK. The settings on record: Mycobacterium kansasii, 7H10 broth, pH 5.8.
The subject of assay [2] is M. tuberculosis 102. Description: Broth dilution MIC vs M. tuberculosis 102. The settings on record: Mycobacterium tuberculosis, 102, pH 5.8, M. tuberculosis 102, 7H10 broth, read-out: MIC. A general note: In broth dilution the organism is exposed to a series of concentrations in liquid medium.
The subject of assay [3] is M. avium 101. Description: Broth dilution MIC vs M. avium 101. The settings on record: Mycobacterium avium, 7H10 broth, pH 5.8.
Assay [4] deals with M. tuberculosis BUR. Nature of the assay: Broth dilution MIC vs M. tuberculosis BUR. The settings on record: Mycobacterium tuberculosis, M. tuberculosis BUR (footnote b), 7H10 broth, pH 5.8.

With `C=CC(C)OC(=O)c1cnc(Cl)cn1` (centres unmarked) [Example 32], the values for the MIC in assay [1], in assay [2] and in assay [3] were less than 1 mg/L, 2 mg/L (≈ 9.41 µM) and 64 mg/L (≈ 301 µM), respectively.

Consider `C=CCOC(=O)c1cnc(Cl)cn1` [Example 33], for which the figures for the MIC in assay [1], in assay [2] and in assay [3] were less than 1 mg/L, 1 mg/L (≈ 5.04 µM) and 64 mg/L (≈ 322 µM), respectively.

Turning to `CC(C)COC(=O)c1cnc(Cl)cn1` [Example 34], the minimal inhibitory concentration (MIC) was less than 1 mg/L in assay [1], 2 mg/L (≈ 9.32 µM) in assay [2] and 64 mg/L (≈ 298 µM) in assay [3].

As to `CC(C)(C)OC(=O)c1cnc(Cl)cn1` [Example 35], the figures for the MIC in assay [1], in assay [2] and in assay [3] were less than 1 mg/L, 2 mg/L (≈ 9.32 µM) and 128 mg/L (≈ 596 µM), respectively.

As to `CCCCCCCCCC(C)OC(=O)c1cnc(Cl)cn1` (centres unmarked) [Example 36], the MIC in assay [1] was 0.25 mg/L (≈ 0.799 µM); in assay [2], 0.25 mg/L (≈ 0.799 µM); in assay [3], 16 mg/L (≈ 51.1 µM).

`CCCCCCCC(C)(CCCC)OC(=O)c1cnc(Cl)cn1` (centres unmarked) [Example 37]: the results for the MIC in assay [1], in assay [2] and in assay [3] were 16 mg/L (≈ 46.9 µM), 8 mg/L (≈ 23.5 µM) and more than 64 mg/L, respectively.

Take `CCCCCCCCC(C)(CCCC)OC(=O)c1cnc(Cl)cn1` (centres unmarked) [Example 38]: the MIC was more than 16 mg/L in assay [1], 16 mg/L (≈ 45.1 µM) in assay [2] and more than 64 mg/L in assay [3].

For the compound `COC(=O)c1cnc(I)cn1` [Example 39], the MIC in assay [1] is 8 mg/L (≈ 30.3 µM); in assay [2] it was 16 mg/L (≈ 60.6 µM); in assay [3], 256 mg/L (≈ 970 µM).

As to `CCCCCC(C)(CCCC)OC(=O)c1cnc(Cl)cn1` (centres unmarked) [Example 40], the values for the MIC in assay [1], in assay [2] and in assay [3] were 16 mg/L (≈ 51.1 µM), 4 mg/L (≈ 12.8 µM) and more than 256 mg/L, respectively.

For `O=C(OCC(F)(F)F)c1cnccn1` [Example 41], the MIC is 25 mg/L (≈ 121 µM) in assay [4] and 100 mg/L (≈ 485 µM) in assay [1].

`C=CCOC(=O)c1cnccn1` [Example 42]: the MIC in assay [4] came to 6.3 mg/L (≈ 38.4 µM); in assay [1], 3 mg/L (≈ 18.3 µM).

Take `CCCOC(=O)c1cnccn1` [Example 43]: the MIC in assay [4] and in assay [1] was 3 mg/L (≈ 18.1 µM) throughout.

Take `CCCCCC(C)(CCC)OC(=O)c1cnc(Cl)cn1` (centres unmarked) [Example 44]: the MIC in assay [1] was 4 mg/L (≈ 13.4 µM); in assay [2], 4 mg/L (≈ 13.4 µM); in assay [3] it was more than 256 mg/L.

Take `CCCCCC(C)(CCCCC)OC(=O)c1cnc(Cl)cn1` [Example 45]: the MIC in assay [1] is 8 mg/L (≈ 24.5 µM); in assay [2], 8 mg/L (≈ 24.5 µM); in assay [3], more than 64 mg/L.

As to `CCCCCCC(C)(CCCCC)OC(=O)c1cnc(Cl)cn1` (centres unmarked) [Example 46], the figures for the MIC in assay [1], in assay [2] and in assay [3] were 8 mg/L (≈ 23.5 µM), 2 mg/L (≈ 5.87 µM) and more than 64 mg/L, respectively.

For `CCCCCCCC(C)(CCCCC)OC(=O)c1cnc(Cl)cn1` (centres unmarked) [Example 47], the MIC in assay [2] is 2 mg/L (≈ 5.64 µM); in assay [3] it was more than 64 mg/L.

Turning to `CCCCCCCCCC(C)(CCCCCCC)OC(=O)c1cnc(Cl)cn1` (centres unmarked) [Example 48], the figures for the MIC in assay [2] and in assay [3] were 0.5 mg/L (≈ 1.22 µM) and more than 64 mg/L, respectively.

With `CC(C)COC(=O)c1cnccn1` [Example 49], the figures for the MIC in assay [1], in assay [2] and in assay [3] were 16 mg/L (≈ 88.8 µM), 2 mg/L (≈ 11.1 µM) and 256 mg/L (≈ 1420 µM), respectively.

In the case of `CCC(C)OC(=O)c1cnccn1` (centres unmarked) [Example 50], the results for the MIC in assay [1], in assay [2] and in assay [3] were 16 mg/L (≈ 88.8 µM), 8 mg/L (≈ 44.4 µM) and 256 mg/L (≈ 1420 µM), respectively.

As for `Cc1cc(C(C)(C)C)c(OC(=O)c2cnccn2)c(C(C)(C)C)c1` [Example 51], the MIC is more than 16 mg/L in assay [1], 128 mg/L (≈ 392 µM) in assay [2] and more than 256 mg/L in assay [3].

Turning to `O=C(OCc1ccccc1)c1cnccn1` [Example 52], the MIC in assay [1] came to 1 mg/L (≈ 4.67 µM); in assay [2], 1 mg/L (≈ 4.67 µM); in assay [3], 64 mg/L (≈ 299 µM).

With `C/C=C/COC(=O)c1cnccn1` [Example 54], the minimum inhibitory concentration (MIC) in assay [2] was determined as 2 mg/L (≈ 11.2 µM).

For `Cc1cc(C)c(OC(=O)c2cnccn2)c(C)c1` [Example 55], the values for the MIC in assay [1], in assay [2] and in assay [3] were 2 mg/L (≈ 8.25 µM), 1 mg/L (≈ 4.13 µM) and 64 mg/L (≈ 264 µM), respectively.

In the case of `CC1CCC(C(C)C)C(OC(=O)c2cnccn2)C1` (centres unmarked) [Example 56], the MIC in assay [2] amounted to 2 mg/L (≈ 7.62 µM).

Regarding `O=C(OC(C(F)(F)F)C(F)(F)F)c1cnccn1` [Example 60], in assay [4], it took 100 mg/L (≈ 365 µM) to inhibit growth (MIC).

`O=C(OCCCl)c1cnccn1` [Example 62]: the MIC in assay [4] turned out to be 6.3 mg/L (≈ 33.8 µM); in assay [1], 25 mg/L (≈ 134 µM).

Take `O=C(Oc1ccc([N+](=O)[O-])cc1)c1cnccn1` [Example 63]: the values for the MIC in assay [4] and in assay [1] were 12.5 mg/L (≈ 51 µM) and 25 mg/L (≈ 102 µM), respectively.

Turning to `Cc1ccc(OC(=O)c2cnccn2)cc1` [Example 64], the MIC in assay [1] and in assay [2] was 100 mg/L (≈ 467 µM) each time.

On to `CC(C)(C)c1ccc(OC(=O)c2cnccn2)cc1` [Example 65], for which the MIC in assay [1] and in assay [2] was 25 mg/L (≈ 97.5 µM) throughout.

For the compound `O=C(Oc1c(F)c(F)c(F)c(F)c1F)c1cnccn1` [Example 66], the MIC in assay [1] is 25 mg/L (≈ 86.2 µM).

As to `O=C(Oc1ccc(-c2ccccc2)cc1)c1cnccn1` [Example 67], in assay [1], the lowest concentration to inhibit growth (MIC) was 25 mg/L (≈ 90.5 µM).
